# Biological target: T1, integrin α4β7 (RPMI8866 human cells adhering to MAdCAM-1) (Homo sapiens, UniProt P13612+P26010)
# T1 construct: RMP18866 cells, which express integrin α4β7; host or cells: RPMI8866
# T1 sequence (P13612 34-1032): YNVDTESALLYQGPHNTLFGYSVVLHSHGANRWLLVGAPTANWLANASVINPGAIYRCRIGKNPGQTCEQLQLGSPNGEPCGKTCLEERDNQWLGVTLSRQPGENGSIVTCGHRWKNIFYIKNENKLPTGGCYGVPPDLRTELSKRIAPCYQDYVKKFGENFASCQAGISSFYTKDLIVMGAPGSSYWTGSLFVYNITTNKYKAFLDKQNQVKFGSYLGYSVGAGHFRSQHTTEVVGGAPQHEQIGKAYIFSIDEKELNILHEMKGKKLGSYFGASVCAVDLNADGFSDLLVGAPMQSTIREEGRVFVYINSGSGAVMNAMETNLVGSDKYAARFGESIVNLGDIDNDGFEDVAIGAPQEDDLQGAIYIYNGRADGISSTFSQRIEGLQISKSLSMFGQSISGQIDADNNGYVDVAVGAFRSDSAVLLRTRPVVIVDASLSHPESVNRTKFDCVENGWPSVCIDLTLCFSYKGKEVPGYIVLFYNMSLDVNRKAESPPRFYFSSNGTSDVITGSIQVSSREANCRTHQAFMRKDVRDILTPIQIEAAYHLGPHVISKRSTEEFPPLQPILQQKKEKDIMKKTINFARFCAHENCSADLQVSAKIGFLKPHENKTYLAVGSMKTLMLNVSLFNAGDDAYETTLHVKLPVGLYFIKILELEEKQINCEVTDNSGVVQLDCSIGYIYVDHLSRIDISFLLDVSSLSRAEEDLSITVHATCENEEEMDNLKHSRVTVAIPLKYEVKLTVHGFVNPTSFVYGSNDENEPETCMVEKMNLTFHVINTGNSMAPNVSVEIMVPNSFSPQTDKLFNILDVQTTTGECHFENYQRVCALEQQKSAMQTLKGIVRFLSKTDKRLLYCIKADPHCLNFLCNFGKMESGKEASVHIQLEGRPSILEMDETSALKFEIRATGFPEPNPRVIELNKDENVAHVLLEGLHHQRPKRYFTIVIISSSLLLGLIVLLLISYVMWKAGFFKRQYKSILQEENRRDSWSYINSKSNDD
# T1 sequence (P26010 20-798): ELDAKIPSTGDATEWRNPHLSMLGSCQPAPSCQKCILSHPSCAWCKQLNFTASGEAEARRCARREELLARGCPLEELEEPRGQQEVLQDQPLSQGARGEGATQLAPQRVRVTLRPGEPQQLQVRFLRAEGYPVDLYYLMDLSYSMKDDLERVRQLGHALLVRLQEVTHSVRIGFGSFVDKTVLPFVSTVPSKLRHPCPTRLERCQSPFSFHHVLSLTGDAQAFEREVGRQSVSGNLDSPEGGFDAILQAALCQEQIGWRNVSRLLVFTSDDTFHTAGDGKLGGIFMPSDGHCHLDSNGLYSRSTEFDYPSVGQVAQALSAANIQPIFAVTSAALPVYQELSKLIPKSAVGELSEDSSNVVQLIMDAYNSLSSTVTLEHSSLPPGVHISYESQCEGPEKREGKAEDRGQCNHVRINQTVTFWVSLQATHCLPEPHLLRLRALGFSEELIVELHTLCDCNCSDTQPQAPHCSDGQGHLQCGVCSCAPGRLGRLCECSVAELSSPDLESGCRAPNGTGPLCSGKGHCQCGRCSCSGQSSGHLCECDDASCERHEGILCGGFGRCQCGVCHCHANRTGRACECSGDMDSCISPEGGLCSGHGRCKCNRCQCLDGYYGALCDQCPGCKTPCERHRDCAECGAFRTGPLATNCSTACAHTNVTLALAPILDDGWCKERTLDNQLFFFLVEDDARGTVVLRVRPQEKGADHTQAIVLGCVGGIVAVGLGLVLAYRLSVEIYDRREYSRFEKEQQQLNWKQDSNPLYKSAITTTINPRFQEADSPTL
# Experiment: Integrin α4β7-MAdCAM cell adhesion assay (RPMI8866 cells)
# Format: cell-based
# Conditions: RPMI8866 cells adhering to MAdCAM; read-out: RPMI8866 Adhesion α4β7/MAdCAM IC50
# In short: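 RPMI8866 cells were loaded with […] calcein in PBS for 30 min at 37° C. After plate washes with PBS, fluorescence of adherent cells was read, and no-cell control wells were subtracted from each test well to build the dose response.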
row,Structure (SMILES),IC50
1,CC(C)C[C@@H]1NC(=O)c2ccc(-c3ccc(N4CCN(C(=O)CCOCCOCCNC(=O)CCCCCC(=O)NCCOCCOCCC(=O)N5CCN(c6ccc(-c7ccc8cc7CNC(=O)[C@@H]7CCCN7[C@H](C(=O)NC(C)(C)C)[C@H](C)NC(=O)[C@H]([C@@H](C)O)NC(=O)[C@H](CC(=O)O)NC(=O)[C@H](CC(C)C)NC8=O)cc6)CC5)CC4)cc3)c(c2)CNC(=O)[C@@H]2CCCN2[C@H](C(=O)NC(C)(C)C)[C@H](C)NC(=O)[C@H]([C@@H](C)O)NC(=O)[C@H](CC(=O)O)NC1=O [Compound 505],59 nM
2,CC(C)C[C@@H]1NC(=O)c2ccc(-c3ccc(N4CCN(C(=O)CCOCCOCCOCCOCCOCCOCCOCCOCCOCCOCCC(=O)N5CCN(c6ccc(-c7ccc8cc7CNC(=O)[C@@H]7CCCN7[C@H](C(=O)NC(C)(C)C)[C@H](C)NC(=O)[C@H]([C@@H](C)O)NC(=O)[C@H](CC(=O)O)NC(=O)[C@H](CC(C)C)NC8=O)cc6)CC5)CC4)cc3)c(c2)CNC(=O)[C@@H]2CCCN2[C@H](C(=O)NC(C)(C)C)[C@H](C)NC(=O)[C@H]([C@@H](C)O)NC(=O)[C@H](CC(=O)O)NC1=O [Compound 511],30 nM
3,CC(C)C[C@@H]1NC(=O)c2ccc(-c3ccc(N4CCN(C(=O)c5ccccc5-c5ccccc5C(=O)N5CCN(c6ccc(-c7ccc8cc7CNC(=O)[C@@H]7CCCN7[C@H](C(=O)NC(C)(C)C)[C@H](C)NC(=O)[C@H]([C@@H](C)O)NC(=O)[C@H](CC(=O)O)NC(=O)[C@H](CC(C)C)NC8=O)cc6)CC5)CC4)cc3)c(c2)CNC(=O)[C@@H]2CCCN2[C@H](C(=O)NC(C)(C)C)[C@H](C)NC(=O)[C@H]([C@@H](C)O)NC(=O)[C@H](CC(=O)O)NC1=O [Compound 517],10 nM
4,CC(C)C[C@@H]1NC(=O)c2ccc(-c3ccc(N4CCN(Cc5cc(CN6CCN(c7ccc(-c8ccc9cc8CNC(=O)[C@@H]8CCCN8[C@H](C(=O)NC(C)(C)C)[C@H](C)NC(=O)[C@H]([C@@H](C)O)NC(=O)[C@H](CC(=O)O)NC(=O)[C@H](CC(C)C)NC9=O)cc7)CC6)cc(CN6CCN(c7ccc(-c8ccc9cc8CNC(=O)[C@@H]8CCCN8[C@H](C(=O)NC(C)(C)C)[C@H](C)NC(=O)[C@H]([C@@H](C)O)NC(=O)[C@H](CC(=O)O)NC(=O)[C@H](CC(C)C)NC9=O)cc7)CC6)c5)CC4)cc3)c(c2)CNC(=O)[C@@H]2CCCN2[C@H](C(=O)NC(C)(C)C)[C@H](C)NC(=O)[C@H]([C@@H](C)O)NC(=O)[C@H](CC(=O)O)NC1=O [Compound 518],18 nM
5,CC(C)C[C@@H]1NC(=O)c2ccc(-c3ccc(N4CCN(C(=O)c5cc(C(=O)N6CCN(c7ccc(-c8ccc9cc8CNC(=O)[C@@H]8CCCN8[C@H](C(=O)NC(C)(C)C)[C@H](C)NC(=O)[C@H]([C@@H](C)O)NC(=O)[C@H](CC(=O)O)NC(=O)[C@H](CC(C)C)NC9=O)cc7)CC6)cc(C(=O)N6CCN(c7ccc(-c8ccc9cc8CNC(=O)[C@@H]8CCCN8[C@H](C(=O)NC(C)(C)C)[C@H](C)NC(=O)[C@H]([C@@H](C)O)NC(=O)[C@H](CC(=O)O)NC(=O)[C@H](CC(C)C)NC9=O)cc7)CC6)c5)CC4)cc3)c(c2)CNC(=O)[C@@H]2CCCN2[C@H](C(=O)NC(C)(C)C)[C@H](C)NC(=O)[C@H]([C@@H](C)O)NC(=O)[C@H](CC(=O)O)NC1=O [Compound 520],6 nM
6,CC(C)C[C@@H]1NC(=O)C[C@H](CCCCN)N(C)C(=O)[C@H](CCCCNC(=O)CCCCCCCCC(=O)NCCCC[C@@H]2NC(=O)[C@@H]3CCCN3[C@H](C(=O)NC(C)(C)C)[C@H](C)NC(=O)[C@H]([C@@H](C)O)NC(=O)[C@H](CC(=O)O)NC(=O)[C@H](CC(C)C)NC(=O)C[C@H](CCCCN)N(C)C2=O)NC(=O)[C@@H]2CCCN2[C@H](C(=O)NC(C)(C)C)[C@H](C)NC(=O)[C@H]([C@@H](C)O)NC(=O)[C@H](CC(=O)O)NC1=O [Compound 530],15 nM
7,CC(C)C[C@@H]1NC(=O)C[C@H](CCCCN)N(C)C(=O)[C@H](CCCCNC(=O)CCCCCCCC(=O)NCCCC[C@@H]2NC(=O)[C@@H]3CCCN3[C@H](C(=O)NC(C)(C)C)[C@H](C)NC(=O)[C@H]([C@@H](C)O)NC(=O)[C@H](CC(=O)O)NC(=O)[C@H](CC(C)C)NC(=O)C[C@H](CCCCN)N(C)C2=O)NC(=O)[C@@H]2CCCN2[C@H](C(=O)NC(C)(C)C)[C@H](C)NC(=O)[C@H]([C@@H](C)O)NC(=O)[C@H](CC(=O)O)NC1=O [Compound 533],17 nM
8,CC(C)C[C@@H]1NC(=O)C[C@H](CCCCN)N(C)C(=O)[C@H](CCCCNC(=O)c2ccccc2-c2ccccc2C(=O)NCCCC[C@@H]2NC(=O)[C@@H]3CCCN3[C@H](C(=O)NC(C)(C)C)[C@H](C)NC(=O)[C@H]([C@@H](C)O)NC(=O)[C@H](CC(=O)O)NC(=O)[C@H](CC(C)C)NC(=O)C[C@H](CCCCN)N(C)C2=O)NC(=O)[C@@H]2CCCN2[C@H](C(=O)NC(C)(C)C)[C@H](C)NC(=O)[C@H]([C@@H](C)O)NC(=O)[C@H](CC(=O)O)NC1=O [Compound 535],15 nM
9,CC(C)C[C@@H]1NC(=O)C[C@H](CCCCN)N(C)C(=O)[C@H](CCCCNC(=O)CCOCCOCCOCCOCCOCCOCCOCCC(=O)NCCCC[C@@H]2NC(=O)[C@@H]3CCCN3[C@H](C(=O)NC(C)(C)C)[C@H](C)NC(=O)[C@H]([C@@H](C)O)NC(=O)[C@H](CC(=O)O)NC(=O)[C@H](CC(C)C)NC(=O)C[C@H](CCCCN)N(C)C2=O)NC(=O)[C@@H]2CCCN2[C@H](C(=O)NC(C)(C)C)[C@H](C)NC(=O)[C@H]([C@@H](C)O)NC(=O)[C@H](CC(=O)O)NC1=O [Compound 536],16 nM
10,CC(C)C[C@@H]1NC(=O)C[C@H](CCCCN)N(C)C(=O)[C@H](CCCCNC(=O)c2cc(C(=O)NCCCC[C@@H]3NC(=O)[C@@H]4CCCN4[C@H](C(=O)NC(C)(C)C)[C@H](C)NC(=O)[C@H]([C@@H](C)O)NC(=O)[C@H](CC(=O)O)NC(=O)[C@H](CC(C)C)NC(=O)C[C@H](CCCCN)N(C)C3=O)cc(C(=O)NCCCC[C@@H]3NC(=O)[C@@H]4CCCN4[C@H](C(=O)NC(C)(C)C)[C@H](C)NC(=O)[C@H]([C@@H](C)O)NC(=O)[C@H](CC(=O)O)NC(=O)[C@H](CC(C)C)NC(=O)C[C@H](CCCCN)N(C)C3=O)c2)NC(=O)[C@@H]2CCCN2[C@H](C(=O)NC(C)(C)C)[C@H](C)NC(=O)[C@H]([C@@H](C)O)NC(=O)[C@H](CC(=O)O)NC1=O [Compound 538],13 nM

# Same assay, conditions: RPMI8866 cells; read-out: IC50 in the RPMI8866 cell adhesion assay
row,Structure (SMILES),IC50
1,CC(C)C[C@@H]1NC(=O)c2ccc(-c3ccc(N4CCN(C(=O)c5ccccc5-c5ccccc5C(=O)N5CCN(c6ccc(-c7ccc8cc7CNC(=O)[C@@H]7CCCN7[C@H](C(=O)NC(C)(C)C)[C@H](C)NC(=O)[C@H]([C@@H](C)O)NC(=O)[C@H](CC(=O)O)NC(=O)[C@H](CC(C)C)NC8=O)cc6)CC5)CC4)cc3)c(c2)CNC(=O)[C@@H]2CCCN2[C@H](C(=O)NC(C)(C)C)[C@H](C)NC(=O)[C@H]([C@@H](C)O)NC(=O)[C@H](CC(=O)O)NC1=O [Compound 517],9.9 nM

# — patent publication US11713338B2, “Cyclic peptides multimers targeting α-4-β-7 integrin” (priority 2016, dated 2023)
